The test system of one assay is TF-1. Briefly: Anti-proliferation, 24 hr treatment (CellTiter-Glo). The format is cell-based, human. The following applies: read-out: Anti-proliferation IC50. The text has this:
(§1) Nomo-1, P31-FUJ, and NB4 were obtained from Dr. Gary Gilliland. MV4, 11 cells were obtained from Dr. Anthony Letai. Hel, K562, THP, U937, TF-1 and K052 cells were purchased from the American Type Culture Collection (ATCC) (Manassas, Va., USA). […] Cell lines were submitted for cell line authentication and were authenticated within 6 months of manuscript preparation through cell line short tandem repeat (STR) profiling (DDC Medical, Fairfield, Ohio and Molecular Diagnostics Laboratory, Dana Farber Cancer Institute). […] PBMCs were generously provided by Dr. Steven Treon and Dr. Guang Yang.
(§2) The CellTiter-Glo® assay (Promega, Madison, Wis.) was used for proliferation studies and carried out according to manufacturer instructions. Cell viability is reported as percentage of control (untreated) cells, and error bars represent the standard error of the mean for each data point.
A general note: In ATP-based viability assays light output follows the ATP content of the culture.

The next assay concerns NOMO-1. The description is as above. Conditions: read-out: Anti-proliferation IC50. The format is cell-based, human.
Text: as §1, §2

The subject of another assay is U937. Described as above. The format is cell-based, human. Conditions: read-out: Anti-proliferation IC50.
Text: as §1, §2

A further assay relates to MOLM14. The assay is described as above. In kind it is cell-based, human. The following applies: read-out: Anti-proliferation IC50.
Text: as §1, §2

In another assay the test system is NB4-luc+. Described as above. In kind it is cell-based, human. Conditions: read-out: Anti-proliferation IC50.
Text: as §1, §2

The test system of another assay is P31. The description is as above. In kind it is cell-based, human. The following applies: read-out: Anti-proliferation IC50.
Text: as §1, §2

Another assay relates to K562. Described as above. In kind it is cell-based, human. The following applies: read-out: Anti-proliferation IC50.
Text: as §1, §2

The subject of the next assay is OCI-AML5. The assay is described as above. Conditions: read-out: Anti-proliferation IC50. In kind it is cell-based, human.
Text: as §1, §2

The subject of another assay is K052. Described as above. In kind it is cell-based, human. The following applies: read-out: Anti-proliferation IC50.
Text: as §1, §2

The subject of another assay is HEL. The description is as above. In kind it is cell-based, human. Conditions: read-out: Anti-proliferation IC50.
Text: as §1, §2

A further assay deals with MV4,11. Described as above. The format is cell-based, human. Conditions: read-out: Anti-proliferation IC50.
Text: as §1, §2

The next assay concerns MOLM13-luc+. Described as above. In kind it is cell-based, human. The following applies: read-out: Anti-proliferation IC50.
Text: as §1, §2

The next assay has as its target USP7 (Homo sapiens, UniProt Q93009). The assay is described as follows: USP7 IC50 of HBX19818 analogs (Table 9). In kind it is biochemical. Conditions: read-out: USP7 IC50 +/− SEM.
In assay [1] the test system is AML primagraft (D835Y+, FLT3-ITD+) cells. The assay is described as follows: Treatment of mutant FLT3-expressing AML primagraft cells ex vivo. The following applies: read-out: IC50 (+/−S.D.) AML primagraft (D835Y+, FLT3-ITD+). In kind it is cell-based, human. Here is the method:
All animal studies were performed according to protocols approved by the Dana-Farber Cancer Institute's Institutional Animal Care and Use Committee. […] Mice were sacrificed on day 21 of treatment. Bone marrow was flushed from mouse femurs, and spleens and livers were dissected and preserved first in formalin, followed 24 hours later by preservation in 70% ethanol. […] All AML primagraft samples used in the studies described herein were obtained through the Public Repository of Xenografts (proxe.org).
as §2

The mark [2] stands for this setting: 24 hr treatment, TF-1 (FLT3 null).
Where [3] appears, read: 24 hr treatment, NOMO-1 (FLT3 wt or null).
[4] abbreviates: 24 hr treatment, U937 (FLT3 wt or null).
The mark [5] stands for this setting: 24 hr treatment, MOLM14 (FLT3-ITD).
Setting [6] is: 24 hr treatment, NB4-luc+ (FLT3 wt or null).
The mark [7] stands for this setting: 24 hr treatment, P31 (FLT3 wt or null).
The mark [8] stands for this setting: 24 hr treatment, K562 (FLT3 wt or null).
The mark [9] stands for this setting: 24 hr treatment, OCI-AML5 (FLT3 wt or null).
Where [10] appears, read: 24 hr treatment, K052 (FLT3 wt or null).
Where [11] appears, read: 24 hr treatment, HEL (FLT3 wt or null).
The mark [12] stands for this setting: 24 hr treatment, MV4,11 (FLT3-ITD).
The mark [13] stands for this setting: 24 hr treatment, MOLM13-luc+ (FLT3-ITD).

Where two headings read alike, the source gives them in different places.

Sequence of USP7 (Q93009 whole entry): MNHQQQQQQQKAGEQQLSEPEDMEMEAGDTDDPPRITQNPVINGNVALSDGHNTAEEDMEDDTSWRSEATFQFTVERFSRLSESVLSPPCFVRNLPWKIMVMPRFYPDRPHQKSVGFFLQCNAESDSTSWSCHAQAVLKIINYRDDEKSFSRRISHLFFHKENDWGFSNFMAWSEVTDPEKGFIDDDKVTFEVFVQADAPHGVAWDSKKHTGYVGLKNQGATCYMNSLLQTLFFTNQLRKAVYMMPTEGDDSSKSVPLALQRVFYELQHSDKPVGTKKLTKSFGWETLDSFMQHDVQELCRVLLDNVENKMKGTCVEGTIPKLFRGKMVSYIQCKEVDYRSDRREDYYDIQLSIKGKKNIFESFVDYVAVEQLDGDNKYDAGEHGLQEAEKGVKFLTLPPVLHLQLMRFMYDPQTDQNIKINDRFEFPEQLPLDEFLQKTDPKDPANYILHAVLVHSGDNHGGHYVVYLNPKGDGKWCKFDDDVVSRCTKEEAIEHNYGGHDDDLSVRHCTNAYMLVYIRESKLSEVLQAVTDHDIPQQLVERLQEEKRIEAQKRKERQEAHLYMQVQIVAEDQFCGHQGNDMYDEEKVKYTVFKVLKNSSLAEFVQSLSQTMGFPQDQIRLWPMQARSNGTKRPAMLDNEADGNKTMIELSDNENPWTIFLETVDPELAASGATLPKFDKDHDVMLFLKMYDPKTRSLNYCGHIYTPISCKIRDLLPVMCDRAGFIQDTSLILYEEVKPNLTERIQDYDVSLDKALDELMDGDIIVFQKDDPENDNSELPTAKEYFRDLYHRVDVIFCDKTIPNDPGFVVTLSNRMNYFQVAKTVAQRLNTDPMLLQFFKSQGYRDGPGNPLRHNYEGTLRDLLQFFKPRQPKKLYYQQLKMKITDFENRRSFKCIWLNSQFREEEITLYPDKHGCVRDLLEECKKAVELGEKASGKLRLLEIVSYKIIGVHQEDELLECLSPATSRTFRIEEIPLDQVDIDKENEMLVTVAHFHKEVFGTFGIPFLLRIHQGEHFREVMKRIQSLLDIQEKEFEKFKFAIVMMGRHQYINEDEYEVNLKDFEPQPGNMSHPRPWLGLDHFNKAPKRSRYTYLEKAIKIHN

`CCCN(CCC)CCCNC(=O)c1ccc2c(Cl)c3c(nc2c1)CCCC3` [C598-0466]: the IC50 with TF-1 (setting [2]) was 10.7 µM; with NOMO-1 (setting [3]) it was 8.3 µM; in the assay with U937 (setting [4]) it was 12.9 µM; in the assay on MOLM14 (setting [5]), 5.2 µM; in the assay with NB4-luc+ (setting [6]) it was 10.2 µM; with P31 (setting [7]) it was 13.9 µM. For the same compound, the IC50 with K562 (setting [8]) was found to be 13.3 µM; with OCI-AML5 (setting [9]), 8.6 µM; with K052 (setting [10]), 11.6 µM; in the assay on HEL (setting [11]), 16.8 µM; with MV4,11 (setting [12]), 4.1 µM; with MOLM13-luc+ (setting [13]), 2.9 µM. For the same compound, the figures for the IC50 (on USP7; in [1] (24 hr assay); in [1] (72 hr assay)) were 3.6 µM, 4.1 µM and 0.6 µM, respectively.

As to `O=C(NCCCN1CCN(Cc2ccccc2)CC1)c1ccc2nc3c(c(Cl)c2c1)CCCC3` [C598-0563], the IC50 in the assay on TF-1 (setting [2]) stood at 10 µM; in the assay on NOMO-1 (setting [3]) it was 10.7 µM; in the assay with U937 (setting [4]), 13.7 µM; in the assay on MOLM14 (setting [5]) it was 9.9 µM; with NB4-luc+ (setting [6]), 13.6 µM; in the assay on P31 (setting [7]), 10.6 µM. Further, the IC50 in the assay with K562 (setting [8]) was 15.9 µM; with OCI-AML5 (setting [9]), 17 µM; in the assay on K052 (setting [10]) it was 14.5 µM; in the assay on HEL (setting [11]), 19.6 µM; in the assay with MV4,11 (setting [12]), 9.7 µM; in the assay with MOLM13-luc+ (setting [13]) it was 8.8 µM. Also, the IC50 on USP7 was determined as 50 µM; in [1] (24 hr assay) it was 12.2 µM; in assay [1] (72 hr assay), 2.8 µM.

Take `CCN(CCCNC(=O)c1ccc2nc3c(c(Cl)c2c1)CCC3)Cc1ccccc1` [C673-0105]: the IC50 in the assay with TF-1 (setting [2]) amounted to 12.5 µM; with NOMO-1 (setting [3]), 12.7 µM; with U937 (setting [4]), 16.2 µM; in the assay with MOLM14 (setting [5]), 10.1 µM; in the assay on NB4-luc+ (setting [6]), 24.5 µM; with P31 (setting [7]), 29 µM. Further, the IC50 in the assay with K562 (setting [8]) came out at 23.7 µM; with OCI-AML5 (setting [9]), 19.5 µM; with K052 (setting [10]), 23.5 µM; with HEL (setting [11]), 34.4 µM; in the assay on MV4,11 (setting [12]), 7.5 µM; in the assay with MOLM13-luc+ (setting [13]) it was 7.9 µM. Further, the IC50 on USP7 is more than 100 µM; in [1] (24 hr assay), 8.5 µM; in assay [1] (72 hr assay) it was 3.1 µM.

In the case of `CN(CCCNC(=O)c1ccc2nc3c(c(Cl)c2c1)CCCC3)Cc1ccccc1` [HBX19818, reference compound], the IC50 amounted to 12.8 µM with TF-1 (Homo sapiens, TF-1, 24 h); 16.1 µM with NOMO-1 (Homo sapiens, NOMO-1, 24 h); 20.7 µM in the assay on U937 (Homo sapiens, U-937, 24 h); 9.6 µM in the assay with MOLM14 (Homo sapiens, MOLM-14, 24 h); 16.4 µM in the assay on NB4-luc+ (Homo sapiens, 24 h); 18.2 µM with P31 (Homo sapiens, 24 h). For the same compound, the IC50 worked out at 18.5 µM in the assay with K562 (Homo sapiens, K562, 24 h); 17.9 µM in the assay on OCI-AML5 (Homo sapiens, OCI-AML-5, 24 h); 16.6 µM in the assay with K052 (Homo sapiens, K052, 24 h); 25.7 µM in the assay on HEL (Homo sapiens, HEL, 24 h); 8.1 µM with MV4,11 (Homo sapiens, MV4-11, 24 h); 4.4 µM with MOLM13-luc+ (Homo sapiens, 24 h). The IC50 came out at 9.8 µM in [1] (Homo sapiens, 24 hr assay) and 1.9 µM in [1] (Homo sapiens, 72 hr assay).

The values above are taken from patent US11136409B2, “Compositions and methods for identification, assessment, prevention, and treatment of AML using USP10 biomarkers and modulators” (Dana-Farber Cancer Institute, Inc., priority 2016, dated 2021).
